These results are taken from US11192852B2, “Pyrazolyl and pyrimidinyl tricyclic enones as antioxidant inflammation modulators” (REATA PHARMACEUTICALS, INC., priority 2010, dated 2021).

The subject of assay [1] is Nrf2 transcription factor (human NQO1-ARE reporter) in HuH7 cells. Nature of the assay: NQO1-ARE Luciferase Reporter Assay. It is filed as cell-based. Conditions: Huh-7, 62.5 nM, 18 h, fold over DMSO vehicle, Firefly normalized to Renilla. The text has this: NQO1-ARE Luciferase Reporter Assay.
This assay allows for quantitative assessment of the endogenous activity of the Nrf2 transcription factor in cultured mammalian cells. Expression of Firefly luciferase from NQO1-ARE luciferase reporter plasmid is controlled by binding of Nrf2 to a specific enhancer sequence corresponding to the antioxidant response element (ARE) that was identified in the promoter region of the human NADPH:quinone oxidoreductase 1 (NQO1) gene (Xie et al., 1995). The plasmid was constructed by inserting a sequence:
5′-[…]-3′ (SEQ ID NO:1) encompassing the human NQO1-ARE into the pLuc-MCS vector using HindIII/XhoI cloning sites (GenScript Corp., Piscataway, N.J.). The assay is performed in HuH7 cells maintained in DMEM (Invitrogen) supplemented with 10% FBS and 100 U/ml (each) of penicillin and streptomycin. For the assay, cells are plated in 96-well plates at 17,000 cells per well. Twenty four hours later, the cells are co-transfected with 50 ng each of NQO1-ARE reporter plasmid and pRL-TK plasmid using Lipofectamine 2000 transfection reagent (Invitrogen). pRL-TK plasmid constitutively expresses Renilla luciferase and is used as an internal control for normalization of transfection levels. Thirty hours after transfection, the cells are treated with compounds (at concentrations ranging from 0 to 1 μM) for eighteen hours. Firefly and Renilla luciferase activity is assayed by Dual-Glo Luciferase Assay (Promega Corp., Madison, Wis.), the luminescence signal is measured on an L-Max II luminometer (Molecular Devices). Firefly luciferase activity is normalized to the Renilla activity, and fold induction over a vehicle control (DMSO) of normalized Firefly activity is calculated. The fold induction at 62.5 nM concentration is used for comparing relative potencies of compounds to induce Nrf2 transcriptional activity. See Xie T, Belinsky M, Xu Y, Jaiswal A K. ARE- and TRE-mediated regulation of gene expression. Response to xenobiotics and antioxidants. J Biol Chem. (1995) 270(12):6894-6900, which is incorporated herein by reference.
In general terms: Reporter assays use an easily measured gene product as a stand-in for the process of interest.

The subject of assay [2] is IFNγ-induced NO production in RAW264.7 mouse macrophages. As to the kind of experiment: Suppression of IFNγ-induced nitric oxide production (Griess reagent). Conditions: Mus musculus, RAW264.7, RAW264.7 cells, 2 h pre-treatment (0-200 nM), then IFNγ 24 h; normalized to cell viability. It is filed as cell-based. From the text:
Nitric Oxide Production and Cell Viability.

For the molecule `Cn1nc2c(c1-c1ccccc1)CC[C@H]1C(C)(C)C(=O)C(C#N)=C[C@]21C` [TX63465], the fold induction – broadly, the ratio of treated to control signal – at 0.0625 µM in assay [1] amounted to 4.8. In addition, the IC50 (commonly the concentration at which inhibition is half-maximal) in assay [2] turned out to be 0.0183 µM.
For `CC(C)c1c2c(nn1C)[C@@]1(C)C=C(C#N)C(=O)C(C)(C)[C@@H]1CC2` [TX63547] the same measures were 3.1 and 0.087 µM.
Taken in the same sequence, the figures for `COc1nc(-c2cccnc2)nc2c1CC[C@H]1[C@H](C)C(=O)C(C#N)=C[C@]21C` [TX63724] were 4.9 and 0.0031 µM.
For `Cc1nc2c(c(=O)n1C)CC[C@H]1C(C)(C)C(=O)C(C#N)=C[C@]21C` [TX63584] the same measures were 3.1 and more than 0.2 µM.
Consider `CC[C@@H]1C(=O)C(C#N)=C[C@]2(C)c3nn(C)c(-c4ccccc4)c3CC[C@@H]12` [TX63599], for which the fold induction at 0.0625 µM in assay [1] worked out at 3.2. Also, the IC50 in assay [2] came out at 0.014 µM.
For `C[C@@H]1C(=O)C(C#N)=C[C@]2(C)c3nc(-c4ccccc4)ncc3CC[C@@H]12` [TX63569] the same measures were 2 and 0.0098 µM.
